Measurements reported in paper PMC9541843, “N‐terminal alterations turn the gut hormone GLP‐2 into an antagonist with gradual loss of GLP‐2 receptor selectivity towards more GLP‐1 receptor interaction” (British Journal of Pharmacology, 2022).
Read-outs that look alike come from different tables or passages of the source. Peptide text beside a SMILES is read from it.

How the values were obtained:
[1] = biological target: T1, human GLP‐2R (Homo sapiens, UniProt O95838); experiment: cAMP accumulation, agonism (HitHunter cAMP assay); conditions: for Emax: COS-7, read-out: cAMP activation Emax ± SEM; for cAMP activation Log EC50 ± SEM / cAMP activation EC50: COS‐7 cells, human GLP‐2R, 30 min at 37°C, n = 3 in duplicate; for cAMP activation Log EC50 ± SEM: mean ± SEM
T1 sequence (O95838 1-553): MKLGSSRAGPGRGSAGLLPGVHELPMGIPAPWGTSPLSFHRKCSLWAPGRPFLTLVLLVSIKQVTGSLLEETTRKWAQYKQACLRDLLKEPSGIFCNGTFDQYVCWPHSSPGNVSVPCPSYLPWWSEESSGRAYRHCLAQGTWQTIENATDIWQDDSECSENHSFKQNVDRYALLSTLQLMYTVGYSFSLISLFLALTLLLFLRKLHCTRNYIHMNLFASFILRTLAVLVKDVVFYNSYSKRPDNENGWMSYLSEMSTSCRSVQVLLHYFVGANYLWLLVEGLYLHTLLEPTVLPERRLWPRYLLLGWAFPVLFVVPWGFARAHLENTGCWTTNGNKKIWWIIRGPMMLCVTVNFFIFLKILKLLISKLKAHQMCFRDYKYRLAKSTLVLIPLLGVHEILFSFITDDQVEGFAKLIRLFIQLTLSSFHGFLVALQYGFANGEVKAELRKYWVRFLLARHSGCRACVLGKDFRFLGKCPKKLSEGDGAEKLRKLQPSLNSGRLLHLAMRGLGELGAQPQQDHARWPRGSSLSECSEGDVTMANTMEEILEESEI

[2] = biological target: T1, human GLP‐2R; experiment: cAMP accumulation, inhibition of GLP‐2‐induced activation; conditions: for IC50: SEM; for cAMP inhibition Log IC50 ± SEM / cAMP inhibition IC50: COS‐7 cells, human GLP‐2R, n = 3 in duplicate; for cAMP inhibition Log IC50 ± SEM: 10 min preincubation with antagonist, then GLP‐2 for 20 min, mean ± SEM; for cAMP inhibition IC50: inhibition of GLP‐2‐induced cAMP
[3] = biological target: T1, human GLP‐2R; experiment: cell-based; conditions: SEM
Procedure: After incubation, the cells were washed twice in 400 μl per well ice‐cold binding buffer and lysed using 500 μl per well of 200 mM NaOH with 1% SDS for 30 min. The samples were counted using the Wizard Gamma Counter (PerkinElmer, Waltham, MA).
Statistical significance was accepted at P < 0.05.

SMILES | Emax ([1]; SEM) [%] | EC50 ([1]; SEM) [nM] | IC50 [2] [nM] | IC50 [3] [nM] | EC50 [1] [nM] | cAMP inhibition Log IC50 ± SEM [2] | cAMP inhibition IC50 [2] | cAMP activation Log EC50 ± SEM [1] | cAMP activation EC50 [1]
CC[C@H](C)[C@H](NC(=O)[C@H](Cc1ccccc1)NC(=O)[C@H](CC(=O)O)NC(=O)[C@H](CCCNC(=N)N)NC(=O)[C@H](C)NC(=O)[C@H](C)NC(=O)[C@H](CC(C)C)NC(=O)[C@H](CC(N)=O)NC(=O)[C@H](CC(=O)O)NC(=O)[C@H](CC(C)C)NC(=O)[C@@H](NC(=O)[C@@H](NC(=O)[C@H](CC(N)=O)NC(=O)[C@H](CCSC)NC(=O)[C@H](CCC(=O)O)NC(=O)[C@H](CC(=O)O)NC(=O)[C@H](CO)NC(=O)[C@H](Cc1ccccc1)NC(=O)[C@@H](N)CO)[C@@H](C)O)[C@@H](C)CC)C(=O)N[C@@H](CC(N)=O)C(=O)N[C@@H](Cc1c[nH]c2ccccc12)C(=O)N[C@@H](CC(C)C)C(=O)N[C@H](C(=O)N[C@@H](CCC(N)=O)C(=O)N[C@H](C(=O)N[C@@H](CCCCN)C(=O)N[C@H](C(=O)N[C@H](C(=O)N[C@@H](CC(=O)O)C(=O)O)[C@@H](C)O)[C@@H](C)CC)[C@@H](C)O)[C@@H](C)CC [GLP‐2(5‐33)] (H-SFSDEMNTILDNLAARDFINWLIQTKITD-OH) | 40 ± 4.1 | 25.1 | 200 | 12.6 | – | – | – | – | –
CC[C@H](C)[C@H](NC(=O)[C@H](Cc1ccccc1)NC(=O)[C@H](CC(=O)O)NC(=O)[C@H](CCCNC(=N)N)NC(=O)[C@H](C)NC(=O)[C@H](C)NC(=O)[C@H](CC(C)C)NC(=O)[C@H](CC(N)=O)NC(=O)[C@H](CC(=O)O)NC(=O)[C@H](CC(C)C)NC(=O)[C@@H](NC(=O)[C@@H](NC(=O)[C@H](CC(N)=O)NC(=O)[C@H](CCSC)NC(=O)[C@H](CCC(=O)O)NC(=O)[C@H](CC(=O)O)NC(=O)[C@H](CO)NC(=O)[C@@H](N)Cc1ccccc1)[C@@H](C)O)[C@@H](C)CC)C(=O)N[C@@H](CC(N)=O)C(=O)N[C@@H](Cc1c[nH]c2ccccc12)C(=O)N[C@@H](CC(C)C)C(=O)N[C@H](C(=O)N[C@@H](CCC(N)=O)C(=O)N[C@H](C(=O)N[C@@H](CCCCN)C(=O)N[C@H](C(=O)N[C@H](C(=O)N[C@@H](CC(=O)O)C(=O)O)[C@@H](C)O)[C@@H](C)CC)[C@@H](C)O)[C@@H](C)CC [GLP‐2(6‐33)] (H-FSDEMNTILDNLAARDFINWLIQTKITD-OH) | 46 ± 5.1 | 39.8 | 501 | 31.6 | – | – | – | – | –
CC[C@H](C)[C@H](NC(=O)[C@H](Cc1ccccc1)NC(=O)[C@H](CC(=O)O)NC(=O)[C@H](CCCNC(=N)N)NC(=O)[C@H](C)NC(=O)[C@H](C)NC(=O)[C@H](CC(C)C)NC(=O)[C@H](CC(N)=O)NC(=O)[C@H](CC(=O)O)NC(=O)[C@H](CC(C)C)NC(=O)[C@@H](NC(=O)[C@@H](NC(=O)[C@H](CC(N)=O)NC(=O)[C@H](CCSC)NC(=O)[C@H](CCC(=O)O)NC(=O)[C@H](CC(=O)O)NC(=O)[C@@H](N)CO)[C@@H](C)O)[C@@H](C)CC)C(=O)N[C@@H](CC(N)=O)C(=O)N[C@@H](Cc1c[nH]c2ccccc12)C(=O)N[C@@H](CC(C)C)C(=O)N[C@H](C(=O)N[C@@H](CCC(N)=O)C(=O)N[C@H](C(=O)N[C@@H](CCCCN)C(=O)N[C@H](C(=O)N[C@H](C(=O)N[C@@H](CC(=O)O)C(=O)O)[C@@H](C)O)[C@@H](C)CC)[C@@H](C)O)[C@@H](C)CC [GLP‐2(7‐33)] (H-SDEMNTILDNLAARDFINWLIQTKITD-OH) | 27 ± 3.8 | – | – | 20 | 126 | No inhibition | No inhibition | – | –
CC[C@H](C)[C@H](NC(=O)[C@H](Cc1ccccc1)NC(=O)[C@H](CC(=O)O)NC(=O)[C@H](CCCNC(=N)N)NC(=O)[C@H](C)NC(=O)[C@H](C)NC(=O)[C@H](CC(C)C)NC(=O)[C@H](CC(N)=O)NC(=O)[C@H](CC(=O)O)NC(=O)[C@H](CC(C)C)NC(=O)[C@@H](NC(=O)[C@@H](NC(=O)[C@H](CC(N)=O)NC(=O)[C@H](CCSC)NC(=O)[C@H](CCC(=O)O)NC(=O)[C@@H](N)CC(=O)O)[C@@H](C)O)[C@@H](C)CC)C(=O)N[C@@H](CC(N)=O)C(=O)N[C@@H](Cc1c[nH]c2ccccc12)C(=O)N[C@@H](CC(C)C)C(=O)N[C@H](C(=O)N[C@@H](CCC(N)=O)C(=O)N[C@H](C(=O)N[C@@H](CCCCN)C(=O)N[C@H](C(=O)N[C@H](C(=O)N[C@@H](CC(=O)O)C(=O)O)[C@@H](C)O)[C@@H](C)CC)[C@@H](C)O)[C@@H](C)CC [GLP‐2(8‐33)] (H-DEMNTILDNLAARDFINWLIQTKITD-OH) | 19 ± 3 | 63.1 | – | 79.4 | – | No inhibition | No inhibition | – | –
CC[C@H](C)[C@H](NC(=O)[C@H](Cc1ccccc1)NC(=O)[C@H](CC(=O)O)NC(=O)[C@H](CCCNC(=N)N)NC(=O)[C@H](C)NC(=O)[C@H](C)NC(=O)[C@H](CC(C)C)NC(=O)[C@H](CC(N)=O)NC(=O)[C@H](CC(=O)O)NC(=O)[C@H](CC(C)C)NC(=O)[C@@H](NC(=O)[C@@H](NC(=O)[C@H](CC(N)=O)NC(=O)[C@H](CCSC)NC(=O)[C@@H](N)CCC(=O)O)[C@@H](C)O)[C@@H](C)CC)C(=O)N[C@@H](CC(N)=O)C(=O)N[C@@H](Cc1c[nH]c2ccccc12)C(=O)N[C@@H](CC(C)C)C(=O)N[C@H](C(=O)N[C@@H](CCC(N)=O)C(=O)N[C@H](C(=O)N[C@@H](CCCCN)C(=O)N[C@H](C(=O)N[C@H](C(=O)N[C@@H](CC(=O)O)C(=O)O)[C@@H](C)O)[C@@H](C)CC)[C@@H](C)O)[C@@H](C)CC [GLP‐2(9‐33)] (H-EMNTILDNLAARDFINWLIQTKITD-OH) | 65 ± 3.6 | 200 | – | 79.4 | – | No inhibition | No inhibition | – | –
CC[C@H](C)[C@H](NC(=O)[C@H](Cc1ccccc1)NC(=O)[C@H](CC(=O)O)NC(=O)[C@H](CCCNC(=N)N)NC(=O)[C@H](C)NC(=O)[C@H](C)NC(=O)[C@H](CC(C)C)NC(=O)[C@H](CC(N)=O)NC(=O)[C@H](CC(=O)O)NC(=O)[C@H](CC(C)C)NC(=O)[C@@H](NC(=O)[C@@H](NC(=O)[C@H](CC(N)=O)NC(=O)[C@@H](N)CCSC)[C@@H](C)O)[C@@H](C)CC)C(=O)N[C@@H](CC(N)=O)C(=O)N[C@@H](Cc1c[nH]c2ccccc12)C(=O)N[C@@H](CC(C)C)C(=O)N[C@H](C(=O)N[C@@H](CCC(N)=O)C(=O)N[C@H](C(=O)N[C@@H](CCCCN)C(=O)N[C@H](C(=O)N[C@H](C(=O)N[C@@H](CC(=O)O)C(=O)O)[C@@H](C)O)[C@@H](C)CC)[C@@H](C)O)[C@@H](C)CC [GLP‐2(10‐33)] (H-MNTILDNLAARDFINWLIQTKITD-OH) | – | – | 407 | 126 | – | – | – | No activation | No activation
CC[C@H](C)[C@H](NC(=O)[C@H](Cc1ccccc1)NC(=O)[C@H](CC(=O)O)NC(=O)[C@H](CCCNC(=N)N)NC(=O)[C@H](C)NC(=O)[C@H](C)NC(=O)[C@H](CC(C)C)NC(=O)[C@H](CC(N)=O)NC(=O)[C@H](CC(=O)O)NC(=O)[C@H](CC(C)C)NC(=O)[C@@H](NC(=O)[C@@H](NC(=O)[C@@H](N)CC(N)=O)[C@@H](C)O)[C@@H](C)CC)C(=O)N[C@@H](CC(N)=O)C(=O)N[C@@H](Cc1c[nH]c2ccccc12)C(=O)N[C@@H](CC(C)C)C(=O)N[C@H](C(=O)N[C@@H](CCC(N)=O)C(=O)N[C@H](C(=O)N[C@@H](CCCCN)C(=O)N[C@H](C(=O)N[C@H](C(=O)N[C@@H](CC(=O)O)C(=O)O)[C@@H](C)O)[C@@H](C)CC)[C@@H](C)O)[C@@H](C)CC [GLP‐2(11‐33)] (H-NTILDNLAARDFINWLIQTKITD-OH) | – | – | – | 794 | – | No inhibition | No inhibition | No activation | No activation
